Assay results taken from publication PMC4583449, “Characterisation of (R)-2-(2-Fluorobiphenyl-4-yl)-N-(3-Methylpyridin-2-yl)Propanamide as a Dual Fatty Acid Amide Hydrolase: Cyclooxygenase Inhibitor” (PLoS ONE, 2015).

Tests used:
[1] = system: RAW 264.7 cells; assay: Lipid profile (prostaglandins, 2-AG, AEA and related lipids) of RAW 264.7 cell extracts, UPLC-MS/MS; assay type: cell-based, mouse; conditions: 30 min
[2] = molecular target: T1, rat brain FAAH (Rattus norvegicus, UniProt P97612); assay: [3H]AEA hydrolysis in rat brain homogenates; assay type: biochemical; conditions: current authors, unpublished data; read-out: IC50 inhibition of [3H]AEA hydrolysis in rat brain homogenates
T1 construct: the racemate was studied in rat brain homogenates, whereas mouse brain homogenates were used here; from tissue; host or cells: rat brain homogenates
T1 sequence (P97612 1-579): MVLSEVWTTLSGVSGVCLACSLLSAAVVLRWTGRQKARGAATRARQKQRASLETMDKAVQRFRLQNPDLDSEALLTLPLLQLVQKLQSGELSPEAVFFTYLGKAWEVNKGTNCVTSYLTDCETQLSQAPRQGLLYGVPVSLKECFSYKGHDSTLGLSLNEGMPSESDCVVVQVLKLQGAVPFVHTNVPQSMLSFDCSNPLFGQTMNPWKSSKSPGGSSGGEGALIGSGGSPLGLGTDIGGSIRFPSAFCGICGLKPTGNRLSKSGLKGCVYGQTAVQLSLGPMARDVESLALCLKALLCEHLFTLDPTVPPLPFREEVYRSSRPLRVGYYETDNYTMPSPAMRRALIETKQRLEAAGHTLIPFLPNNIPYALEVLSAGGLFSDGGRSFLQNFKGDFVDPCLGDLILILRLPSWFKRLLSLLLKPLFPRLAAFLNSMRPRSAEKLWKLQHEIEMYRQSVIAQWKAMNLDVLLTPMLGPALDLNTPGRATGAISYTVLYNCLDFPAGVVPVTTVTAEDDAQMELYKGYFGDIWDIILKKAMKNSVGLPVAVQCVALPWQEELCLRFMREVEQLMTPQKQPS

[3] = system: RAW 264.7 cells; assay: [3H]AEA hydrolysis by intact RAW 264.7 cells; assay type: cell-based, mouse; conditions: LPS + INF-γ-treated cells; 100 nM [3H]AEA, 60 min; URB597 1 μM, flurbiprofen and (R)-Flu-AM1 10 μM
[4] = LPS + IFNγ 24 h, URB597 1 μM, flurbiprofen 10 μM, (R)-Flu-AM1 10 μM, median (range), n = 5–6
[5] = Treatment None (unstimulated), URB597 1 μM, flurbiprofen 10 μM, (R)-Flu-AM1 10 μM, median (range), n = 5–6

Cc1cccnc1NC(=O)[C@H](C)c1ccc(-c2ccccc2)c(F)c1 [(R)-Flu-AM1, (R)-2-(2-Fluorobiphenyl-4-yl)-N-(3-Methylpyridin-2-yl)Propanamide]
Effect on basal and LPS + INF-γ-stimulated PGD2 and PGE2 production ([1]; 10 μM): almost complete inhibition | Effect upon linoleic acid-derived oxylipins ([1]; 10 μM): No significant effects | Effect on levels of 2-AG in the cell extracts ([1]; 10 μM, unstimulated and LPS + INF-γ-treated): not affected | 2-AG level relative to vehicle None median [1, 4]: 0.81 (0.64–0.98) | 9,10,13-TriHOME level relative to vehicle None median [1, 4]: 1.18 (0.90–1.49) | 9,10-DiHOME level relative to vehicle None median [1, 4]: 0.82 (0.65–1.09) | 9,12,13-TriHOME level relative to vehicle None median [1, 4]: 1.22 (0.79–1.60) | 9-HODE level relative to vehicle None median [1, 4]: 1.06 (0.50–1.64) | 11-HETE level relative to vehicle None median [1, 4]: 2.29 (0.92–7.87) | 12(13)-EpOME level relative to vehicle None median [1, 4]: 1.02 (0.53–1.98) | 12(S)-HEPE level relative to vehicle None median [1, 4]: 0.27 (0–0.74) | 12,13-DiHOME level relative to vehicle None median [1, 4]: 0.93 (0.76–1.04) | 12-HETE level relative to vehicle None median [1, 4]: 0.32 (0.10–1.05) | 13-HODE level relative to vehicle None median [1, 4]: 1.21 (0.55–1.75) | 13-oxo-ODE level relative to vehicle None median [1, 4]: 1.49 (0.31–2.85) | 15-HETE level relative to vehicle None median [1, 4]: 1.33 (0.67–3.37) | AEA level relative to vehicle None median [1, 4]: 1.01 (0.37–1.16) | LEA level relative to vehicle None median [1, 4]: 1.13 (0.33–1.60) | OEA level relative to vehicle None median [1, 4]: 1.03 (0.87–1.22) | PEA level relative to vehicle None median [1, 4]: 0.91 (0.49–1.15) | PGD2 level relative to vehicle None median [1, 4]: 3.14 (1.51–4.13) | SEA level relative to vehicle None median [1, 4]: 0.86 (0.65–1.11) | Effect on levels of AEA and related N-acylethanolamines in the cells ([1]; LPS + INF-γ-treated, ionomycin (5 μM) treated cells, URB597 1 μM, flurbiprofen and (R)-Flu-AM1 10 μM): did not affect | 2-AG level relative to vehicle None median [1, 5]: 0.94 (0.62–1.52) | 9,10,13-TriHOME level relative to vehicle None median [1, 5]: 1.04 (0.81–1.41) | 9,10-DiHOME level relative to vehicle None median [1, 5]: 1.05 (0.64–1.66) | 9,12,13-TriHOME level relative to vehicle None median [1, 5]: 1.08 (0.76–1.57) | 9-HODE level relative to vehicle None median [1, 5]: 0.99 (0.66–2.11) | 11-HETE level relative to vehicle None median [1, 5]: 0.55 (0.12–2.43) | 12(13)-EpOME level relative to vehicle None median [1, 5]: 1.03 (0.51–5.45) | 12(S)-HEPE level relative to vehicle None median [1, 5]: 0.90 (0.17–1.43) | 12,13-DiHOME level relative to vehicle None median [1, 5]: 1.12 (0.73–1.53) | 12-HETE level relative to vehicle None median [1, 5]: 0.94 (0.27–1.82) | 13-HODE level relative to vehicle None median [1, 5]: 0.97 (0.71–2.66) | 13-oxo-ODE level relative to vehicle None median [1, 5]: 1.97(0.59–3.00) | 15-HETE level relative to vehicle None median [1, 5]: 1.37 (0–2.72) | AEA level relative to vehicle None median [1, 5]: 0.65 (0.39–0.86) | LEA level relative to vehicle None median [1, 5]: 1.07 (0.21–1.26) | OEA level relative to vehicle None median [1, 5]: 1.01 (0.79–1.11) | PEA level relative to vehicle None median [1, 5]: 0.89 (0.74–1.06) | PGD2 level relative to vehicle None median [1, 5]: 0 (0–0.25) | PGE2 level relative to vehicle None median [1, 5]: 0 (0–0.25) | SEA level relative to vehicle None median [1, 5]: 0.90 (0.52–1.02) | IC50 [2]: 740 nM | Effect on hydrolysis of exogenous [3H]AEA by intact cells [3]: would not be expected, and this was found to be the case
